≈ marks a conversion by molar mass, not a printed value.

The values below come from ChEMBL document CHEMBL4428093, “One pot Click chemistry: A three component reaction for the synthesis of 2-mercaptobenzimidazole linked coumarinyl triazoles as anti-tubercular agents” (2016).

For assay [1], the system named is Mycobacterium tuberculosis. Briefly: Antituberculosis activity against Mycobacterium tuberculosis H37Rv after 5 days by MABA method. In kind it is functional. The conditions noted are these: 120 h. (In general: The colour change of resazurin is a common sign of viable cells or microbes.)
The subject of assay [2] is Mycobacterium tuberculosis. Briefly: Potency index, ratio of streptomycin MIC to compound MIC for Mycobacterium tuberculosis H37Rv. In kind it is functional.

One may read the MIC as the lowest concentration that inhibits growth of the organism. Read a low MIC as a more susceptible organism. In assay [1], `Cc1ccc2c(Cn3cc(CSc4nc5ccccc5[nH]4)nn3)cc(=O)oc2c1C` gave an MIC of 3.8 µM (≈ 1.59 µg/mL). Further, the Ratio in assay [2] amounted to 3.
With `O=c1cc(Cn2cc(CSc3nc4ccccc4[nH]3)nn2)c2ccc(Cl)cc2[nH]1`, in assay [1], the MIC was 14.8 µM (≈ 6.26 µg/mL).
In assay [1], `O=c1cc(Cn2cc(CSc3nc4ccccc4[nH]3)nn2)c2ccc(Cl)cc2o1` showed an MIC of 7.3 µM (≈ 3.09 µg/mL).
The same measure, in the same setting: in the case of `COc1ccc2c(Cn3cc(CSc4nc5ccccc5[nH]4)nn3)cc(=O)oc2c1` it was 59.6 µM (≈ 25 µg/mL); in that of `O=c1cc(Cn2cc(CSc3nc4ccccc4[nH]3)nn2)c2ccc3ccccc3c2o1`, 28.4 µM (≈ 12.5 µg/mL).
The same measure, in the same setting: with `O=C(O)c1cn(C2CC2)c2cc(N3CCNCC3)c(F)cc2c1=O` [CIPROFLOXACIN] the figure was 9.4 µM (≈ 3.11 µg/mL); with `Cc1cccc2c(Cn3cc(CSc4nc5ccccc5[nH]4)nn3)cc(=O)[nH]c12`, 7.7 µM (≈ 3.1 µg/mL); with `Cc1ccc2oc(=O)cc(Cn3cc(CSc4nc5ccccc5[nH]4)nn3)c2c1`, 7.7 µM (≈ 3.11 µg/mL).
Same read-out and setting: with `O=c1cc(Cn2cc(CSc3nc4ccccc4[nH]3)nn2)c2cc(Cl)ccc2[nH]1` the figure was 29.6 µM (≈ 12.5 µg/mL).
In assay [1], `O=c1cc(Cn2cc(CSc3nc4ccccc4[nH]3)nn2)c2ccccc2[nH]1` returned an MIC of 32.2 µM (≈ 12.5 µg/mL).
In assay [1], `CN[C@@H]1[C@H](O[C@H]2[C@H](O[C@H]3[C@H](O)[C@@H](O)[C@H](N=C(N)N)[C@@H](O)[C@@H]3N=C(N)N)O[C@@H](C)[C@]2(O)C=O)O[C@@H](CO)[C@H](O)[C@H]1O` [STREPTOMYCIN] came in with an MIC of 10.7 µM (≈ 6.22 µg/mL).
In assay [1], `O=c1cc(Cn2cc(CSc3nc4ccccc4[nH]3)nn2)c2c(ccc3ccccc32)o1` returned an MIC of 14.2 µM (≈ 6.24 µg/mL).
In turn, `Cc1cc(C)c2c(Cn3cc(CSc4nc5ccccc5[nH]4)nn3)cc(=O)oc2c1` came in with an MIC in assay [1] of 3.8 µM (≈ 1.59 µg/mL). For the same compound, in assay [2], the Ratio turned out to be 3.
With `Cc1ccc2c(Cn3cc(CSc4nc5ccccc5[nH]4)nn3)cc(=O)oc2c1`, 7.7 µM (≈ 3.11 µg/mL) was the least that counted as inhibitory in assay [1] (MIC).
Compound `COc1ccc2oc(=O)cc(Cn3cc(CSc4nc5ccccc5[nH]4)nn3)c2c1` registered an MIC in assay [1] of 29.8 µM (≈ 12.5 µg/mL).
On the same count and under the same terms, in the case of `O=c1cc(Cn2cc(CSc3nc4ccccc4[nH]3)nn2)c2ccc(O)cc2o1` it was 30.8 µM (≈ 12.5 µg/mL).
The compound `NC(=O)c1cnccn1` [PYRAZINAMIDE] gave an MIC in assay [1] of 25.3 µM (≈ 3.11 µg/mL).
